Test results taken from EP3878446A1, “HSD11B1 INHIBITORS FOR USE IN IMMUNOTHERAPY AND USES THEREOF” (UNIVERSITE DE GENEVE, priority 2020, dated 2021).

What was measured:
[1] = test system: human peripheral blood mononuclear cell (PBMC); assay: antigen recall assay (IFNγ secretion by CMV-stimulated PBMC, ELISA); format: cell-based; details: co-treatment: 1 µM HSD11B1 inhibitor + 1 µg/ml anti PD-1 (G4K), compared to anti-PD-1 or HSD11B1 inhibitor alone, 1 µg/ml CMV antigen, 50 ng/ml cortisone, 6 days, Fig. 1
From the text: Response to immunotherapy rely on critical biological steps including antigen presentation and T cell activation. Therefore, the therapeutic potential of combining immunotherapy with HSD11B1 inhibition was investigated in an antigen recall assay as described below. Antigen recall assay is the gold standard in vitro method to assess the bioactivity of immune checkpoint inhibitors because it measures at the same time the potential of antigen presenting cells to activate T cell and the actual T cell activation, taking into account thereby the two critical mechanisms required for an optimal response to immunotherapy. The level of IFNγ secreted in this human immune cell-based assay is considered as a good indicator of the T cells activation to immunomodulatory molecules. Cryopreserved human peripheral blood mononuclear cell (PBMC) isolated from cytomegalovirus (CMV) positive heathy donors were thawed in a 37°C water bath and seeded in round bottom 96 well plates at 2 X 10^5 cells/well in 150 µL final volume of RPMI media supplemented with 10% fetal bovin serum, 1% non-essential amino acids, 0.01M Hepes, 1% Penicilin/Streptomycin, 1% L-glutamine and 50 ng/ml cortisone). […] Plates were incubated at 37°C, 6% CO2. After 6 days, supernatants were assayed for IFNγ by ELISA (Biolegend).

[2] = test system: GFP-expressing Renca cells; assay: murine T cell-mediated tumor cell-killing assay (growth of GFP Renca cells, Incucyte imaging); format: cell-based; details: combination: 10 µM HSD11B1 inhibitor + anti-PD-1 (mouse), compared to single treatments; 200 ng/ml 11-DHC; BMDCs, OT-I CD8 T cells, SIINFEKL loaded GFP Renca cells; Fig. 2
Experimental: Another critical biological mechanism required for an optimal response to immunotherapy of cancer is the capacity of T cells to kill the tumor target cells. The therapeutic potential of combining immunotherapy with HSD11B1 inhibition for the treatment of cancer was therefore assessed in a murine T cell-mediated tumor cell-killing assay. Wild type C57BL/6J murine bone marrow progenitors cells were maintained with 20 ng/ml GMCSF (Peprotech) to induce differentiation into bone marrow derived dendritic cells (BMDCs) for 6 days. At day 6, 2 X 10^4 BMDCs/well together with 2 X 10^3 Renca tumor cells/well were seeded in flat bottom 96 well plate in RPMI 1640 supplemented with 10% FBS, 1% Penicillin/streptomycin, 1% L-glutamine, […] betamercaptoethanol and 0.5% of sodium pyruvate, 32 ng/ml R848 (Invivogen) and 25 µg/ml ovalbumin (Invivogen). After 24 hours, cell supernatant was removed and 1x10^5 OT-I CD8 T cells/well were added in very low endotoxin RPMI 1640 medium supplemented with 10% fetal bovine serum, 1% L-glutamine, 1% penicillin-streptomycin, 1% sodium-pyruvate, 1% glutamine, 1%, non-essential amino acids and […] beta-mercaptoethanol. After 24 hours, 5x10^3 H2kb-recombined; SEQ ID NO: 1 […] (Invivogen) loaded-GFP-expressing Renca cells/well were added. The growth of GFP Renca cells was measured and quantified in real time by cell imaging using the Incucyte technology. […]

Compound	level on IFNγ [1]	growth of tumor cells [2]
O=C(O)CC1CC2(CCN(C(=O)NC3C4CC5CC(C4)CC3C5)CC2)c2c(Br)cccc21 (racemic) [10J, (+/-)-2-(7-bromo-1'-((2-adamantyl)carbamoyl)-2,3-dihydrospiro [indene-1,4'-piperidine]-3-yl) acetic acid]	significantly increased	
CC(C)(O)c1cccn2c(C3(c4ccc(Cl)cc4)CC3)nnc12 [BMS-823778, 2-[3-[1-(4-chlorophenyl)cyclopropyl]-[1,2,4]triazolo[4,3-a]pyridin-8-yl]propan-2-ol]	significantly increased	inhibited the growth of tumor cells more efficiently than the single treatments
CC1(C)[C@@H](OC(=O)CCC(=O)O)CC[C@]2(C)[C@H]3C(=O)C=C4[C@@H]5C[C@@](C)(C(=O)O)CC[C@]5(C)CC[C@@]4(C)[C@]3(C)CC[C@@H]12 [carbenoxolone, (2S,4aS,6aR,6aS,6bR,8aR,10S,12aS,14bR )-10-(3-carboxypropanoyloxy)-2,4a,6a,6b,9,9,12a-heptamethyl-13-oxo-3,4,5,6,6a,7,8,8a,10,11,12,14b-dodecahydro-1H-picene-2-carboxylic acid]	significantly increased	
